Non-standard residues stand in square brackets, D forms with d. Residues, ends and D or L forms follow the SMILES beside them. *: point of attachment. d(pY) = N[C@H](Cc1ccc(OP(=O)(O)O)cc1)C(=O)O; Acetyl(2-naphthyl) = O=C(Cc1ccc2ccccc2c1)*; pY = N[C@@H](Cc1ccc(OP(=O)(O)O)cc1)C(=O)O
Key:
proteinase K = proteinase K (Parengyodontium album, UniProt P06873)
HeLa cells = conditions: 48 h
[1] = assay type: physicochemical; conditions: pH 7.4
[2] = assay type: physicochemical; conditions: pH 7.4; remark: listed apart in the source
[3] = assay type: physicochemical; conditions: pH 7.4; remark: listed apart in the source

proteinase K, sequence (P06873 106-384): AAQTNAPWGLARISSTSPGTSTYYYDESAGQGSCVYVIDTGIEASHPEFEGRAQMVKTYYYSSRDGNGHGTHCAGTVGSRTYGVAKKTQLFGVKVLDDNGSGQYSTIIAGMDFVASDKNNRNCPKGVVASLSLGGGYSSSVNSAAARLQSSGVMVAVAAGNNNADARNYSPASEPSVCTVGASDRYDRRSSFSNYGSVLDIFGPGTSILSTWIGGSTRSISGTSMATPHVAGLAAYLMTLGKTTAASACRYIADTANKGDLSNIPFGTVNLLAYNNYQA

| Compound | proteolytic stability towards proteinase K (proteinase K) | IC50 (HeLa cells) [µM] | ALP gel: dynamic strain sweep, Max. G′ [1] [Pa] | ALP gel: dynamic strain sweep, critical strains [1] [%] | ALP gel: TEM fiber width [2] | time to hydrogel after addition of ALP [3] [min] |
| --- | --- | --- | --- | --- | --- | --- |
| NC(=O)CC[C@@H](NC(=O)[C@@H](CCC(N)=O)NC(=O)[C@@H](CC(N)=O)NC(=O)[C@@H](CC(N)=O)NC(=O)CNC(=O)[C@@H](Cc1ccccc1)NC(=O)[C@@H](Cc1ccccc1)NC(=O)Cc1ccc2ccccc2c1)C(=O)N[C@H](CC(N)=O)C(=O)N[C@H](Cc1ccc(OP(=O)(O)O)cc1)C(=O)O [Precursor D-3P, N’ffgnnqqnyp] ({Acetyl(2-naphthyl)}-[dF][dF]G[dN][dN][dQ][dQ][dN][d(pY)]-OH) | high resistance | > 500 |  |  |  |  |
| NC(=O)CC[C@@H](NC(=O)[C@@H](CCC(N)=O)NC(=O)[C@@H](CC(N)=O)NC(=O)[C@@H](CC(N)=O)NC(=O)CNC(=O)[C@@H](Cc1ccccc1)NC(=O)[C@@H](Cc1ccccc1)NC(=O)Cc1ccc2ccccc2c1)C(=O)N[C@H](CC(N)=O)C(=O)N[C@H](Cc1ccc(O)cc1)C(=O)O [Precursor D-3] ({Acetyl(2-naphthyl)}-[dF][dF]G[dN][dN][dQ][dQ][dN][dY]-OH) |  |  | 132 | 7.0 |  |  |
| NC(=O)CC[C@H](NC(=O)[C@H](CCC(N)=O)NC(=O)[C@H](CC(N)=O)NC(=O)[C@H](CC(N)=O)NC(=O)CNC(=O)[C@H](Cc1ccccc1)NC(=O)[C@H](Cc1ccccc1)NC(=O)Cc1ccc2ccccc2c1)C(=O)N[C@@H](CC(N)=O)C(=O)N[C@@H](Cc1ccc(OP(=O)(O)O)cc1)C(=O)O [Precursor L-3P, N’FFGNNQQNYp] ({Acetyl(2-naphthyl)}-FFGNNQQN[pY]-OH) | almost completely degrade | 476 ± 21.4 | 32.8 | 13.2 | 8 ± 2 nm | 10 |
| NC(=O)CC[C@H](NC(=O)[C@H](CCC(N)=O)NC(=O)[C@H](CC(N)=O)NC(=O)[C@H](CC(N)=O)NC(=O)CNC(=O)[C@H](Cc1ccccc1)NC(=O)[C@H](Cc1ccccc1)NC(=O)Cc1ccc2ccccc2c1)C(=O)N[C@@H](CC(N)=O)C(=O)N[C@@H](Cc1ccc(O)cc1)C(=O)O [Precursor L-3] ({Acetyl(2-naphthyl)}-FFGNNQQNY-OH) |  |  | 33 | 13.2 | about 8 ± 2 nm |  |
